Values quoted from earlier work as cited in paper PMC6370995, “Phase I study of PF‐04895162, a Kv7 channel opener, reveals unexpected hepatotoxicity in healthy subjects, but not rats or monkeys: clinical evidence of disrupted bile acid homeostasis” (Pharmacology Research & Perspectives, 2019).

Columns and labels:
patients = tested on: patients; design: method as in PMID 27178047; details: 50 mg once daily, Phase 3 clinical study; cited from earlier work
BSEP = tested on: BSEP; design: method as in PMID 11309550; details: cited from earlier work

Question: With Cc1cc(OCCCS(C)(=O)=O)cc(C)c1-c1cccc(COc2ccc3c(c2)OC[C@H]3CC(=O)O)c1 [TAK‐875] as the molecule, how does the clinical liver finding (patients) read?
Answer: The clinical liver finding was “clinical hepatotoxicity in a small number of patients”.

Question: Which BSEP inhibition potency (BSEP) does the source give for COc1ccccc1Oc1c(NS(=O)(=O)c2ccc(C(C)(C)C)cc2)nc(-c2ncccn2)nc1OCCO [bosentan] here?
Answer: Its BSEP inhibition potency is ~ 12 μmol/L.
